Test results taken from PubChem BioAssay AID1745844 (Carcinogenic Potency Database (CPDB), 2022).
Calls of active or inactive are those of the source. How the calls were made is not given here.

Test system: rodent lifetime carcinogenesis bioassay, tumor incidence TD50
Experiment: chronic cancer bioassays in animals – CPDB, compiled studies (AID 1745844)

In the case of `CCN(CC)C(=S)S[Te](SC(=S)N(CC)CC)(SC(=S)N(CC)CC)SC(=S)N(CC)CC`, the TD50 (mouse, strain B6AKF1, females, oral dosing, site: any site (literature study), lesion: several types, types named in the paper, dosed 76 weeks, study length 76 weeks) is reported as 26.7 mg/kg/day, the TD50 (mouse, strain B6AKF1, females, oral dosing, site: lung, lesion: adenoma, dosed 76 weeks, study length 76 weeks) is reported as 28.2 mg/kg/day and the TD50 (mouse, strain B6AKF1, males, oral dosing, site: any site (literature study), lesion: several types, types named in the paper, dosed 76 weeks, study length 76 weeks) is reported as 31.2 mg/kg/day. For the same molecule, the TD50 (mouse, strain B6AKF1, males, oral dosing, site: liver, lesion: hepatoma, dosed 76 weeks, study length 76 weeks) was 55.5 mg/kg/day, the TD50 (mouse, strain B6C3F1, females, in feed, site: any site (literature study), lesion: several types, types named in the paper, dosed 106 weeks, study length 106 weeks) was 1030 mg/kg/day (inactive) and the TD50 (mouse, strain B6C3F1, females, in feed, site: liver, lesion: hepatocellular adenoma + hepatocellular carcinoma + neoplastic nodule, dosed 106 weeks, study length 106 weeks) was 2270 mg/kg/day. For the same molecule, the TD50 (mouse, strain B6C3F1, females, in feed, site: lung, lesion: alveolar/bronchiolar adenoma + alveolar/bronchiolar carcinoma, dosed 106 weeks, study length 106 weeks) was 3400 mg/kg/day, the TD50 (mouse, strain B6C3F1, females, oral dosing, site: any site (literature study), lesion: several types, types named in the paper, dosed 76 weeks, study length 76 weeks) was 63.5 mg/kg/day and the TD50 (mouse, strain B6C3F1, females, oral dosing, site: lung, lesion: adenoma, dosed 76 weeks, study length 76 weeks) was 131 mg/kg/day. The TD50 (mouse, strain B6C3F1, males, in feed, site: any site (literature study), lesion: several types, types named in the paper, dosed 106 weeks, study length 106 weeks) was 902 mg/kg/day, the TD50 (mouse, strain B6C3F1, males, in feed, site: eye, lesion: adenoma, NOS, dosed 106 weeks, study length 106 weeks) was 201 mg/kg/day and the TD50 (mouse, strain B6C3F1, males, in feed, site: lung, lesion: alveolar/bronchiolar adenoma + alveolar/bronchiolar carcinoma, dosed 106 weeks, study length 106 weeks) was 228 mg/kg/day. For the same molecule, the TD50 (mouse, strain B6C3F1, males, in feed, site: lung, lesion: alveolar/bronchiolar carcinoma, dosed 106 weeks, study length 106 weeks) was 260 mg/kg/day, the TD50 (mouse, strain B6C3F1, males, oral dosing, site: any site (literature study), lesion: several types, types named in the paper, dosed 76 weeks, study length 76 weeks) was 8.41 mg/kg/day and the TD50 (mouse, strain B6C3F1, males, oral dosing, site: liver, lesion: hepatoma, dosed 76 weeks, study length 76 weeks) was 24.2 mg/kg/day. For the same molecule, the TD50 (mouse, strain B6C3F1, males, oral dosing, site: lung, lesion: adenoma, dosed 76 weeks, study length 76 weeks) was 108 mg/kg/day, the TD50 (mouse, strain B6C3F1, males, oral dosing, site: lung, lesion: carcinoma, dosed 76 weeks, study length 76 weeks) was 108 mg/kg/day and the TD50 (mouse, strain B6C3F1, males, oral dosing, site: lung, lesion: several types, types named in the paper, dosed 76 weeks, study length 76 weeks) was 52.1 mg/kg/day. For the same molecule, the TD50 (rat, strain Fischer 344, females, in feed, site: liver, lesion: hepatocellular adenoma + hepatocellular carcinoma + neoplastic nodule, dosed 105 weeks, study length 105 weeks) was 650 mg/kg/day, the TD50 (rat, strain Fischer 344, females, in feed, site: pituitary gland, lesion: adenoma, NOS, dosed 105 weeks, study length 105 weeks) was 12.3 mg/kg/day (inactive) and the TD50 (rat, strain Fischer 344, males, in feed, site: all sites, lesion: mesothelioma, NOS, dosed 105 weeks, study length 105 weeks) was 77.6 mg/kg/day. The TD50 (rat, strain Fischer 344, males, in feed, site: body cavities, lesion: mesothelioma, NOS, dosed 105 weeks, study length 105 weeks) was 181 mg/kg/day.
With `Nc1ccc(N)c2c1C(=O)c1c(N)ccc(N)c1C2=O` the TD50 (mouse, strain B6C3F1, females, in feed, site: liver, lesion: hepatocellular adenoma, dosed 103 weeks, study length 106 weeks) was 150 mg/kg/day (inactive), the TD50 (mouse, strain B6C3F1, females, in feed, site: lung, lesion: alveolar/bronchiolar adenoma + alveolar/bronchiolar carcinoma, dosed 103 weeks, study length 106 weeks) was 9310 mg/kg/day and the TD50 (mouse, strain B6C3F1, males, in feed, site: any site (literature study), lesion: several types, types named in the paper, dosed 104 weeks, study length 105 weeks) was 1290 mg/kg/day. It also gave a TD50 (mouse, strain B6C3F1, males, in feed, site: liver, lesion: hepatocellular adenoma + hepatocellular carcinoma + neoplastic nodule, dosed 104 weeks, study length 105 weeks) of 534 mg/kg/day, a TD50 (mouse, strain B6C3F1, males, in feed, site: liver, lesion: hepatocellular adenoma + hepatocellular carcinoma, dosed 104 weeks, study length 105 weeks) of 534 mg/kg/day and a TD50 (mouse, strain B6C3F1, males, in feed, site: lung, lesion: alveolar/bronchiolar adenoma + alveolar/bronchiolar carcinoma, dosed 104 weeks, study length 105 weeks) of 701 mg/kg/day. The TD50 (mouse, strain B6C3F1, males, in feed, site: lung, lesion: alveolar/bronchiolar adenoma, dosed 104 weeks, study length 105 weeks) was 925 mg/kg/day, the TD50 (rat, strain Fischer 344, females, in feed, site: any site (literature study), lesion: several types, types named in the paper, dosed 103 weeks, study length 104 weeks) was 130 mg/kg/day and the TD50 (rat, strain Fischer 344, females, in feed, site: pancreatic islets, lesion: islet-cell carcinoma, dosed 103 weeks, study length 104 weeks) was 291 mg/kg/day. The TD50 (rat, strain Fischer 344, females, in feed, site: pituitary gland + pancreatic islets, lesion: carcinoma, NOS + islet-cell carcinoma, dosed 103 weeks, study length 104 weeks) was 323 mg/kg/day, the TD50 (rat, strain Fischer 344, females, in feed, site: urinary bladder, lesion: leiomyoma, dosed 103 weeks, study length 104 weeks) was 1540 mg/kg/day and the TD50 (rat, strain Fischer 344, females, in feed, site: urinary bladder, lesion: leiomyosarcoma + leiomyoma + squamous-cell carcinoma + squamous-cell papilloma + transitional-cell carcinoma + transitional-cell p, dosed 103 weeks, study length 104 weeks) was 131 mg/kg/day. It also gave a TD50 (rat, strain Fischer 344, females, in feed, site: urinary bladder, lesion: leiomyosarcoma + leiomyoma, dosed 103 weeks, study length 104 weeks) of 250 mg/kg/day, a TD50 (rat, strain Fischer 344, females, in feed, site: urinary bladder, lesion: leiomyosarcoma, dosed 103 weeks, study length 104 weeks) of 294 mg/kg/day and a TD50 (rat, strain Fischer 344, females, in feed, site: urinary bladder, lesion: squamous-cell carcinoma + squamous-cell papilloma, dosed 103 weeks, study length 104 weeks) of 664 mg/kg/day. For the same molecule, the TD50 (rat, strain Fischer 344, females, in feed, site: urinary bladder, lesion: squamous-cell carcinoma, dosed 103 weeks, study length 104 weeks) was 1580 mg/kg/day, the TD50 (rat, strain Fischer 344, females, in feed, site: urinary bladder, lesion: squamous-cell papilloma, dosed 103 weeks, study length 104 weeks) was 1020 mg/kg/day and the TD50 (rat, strain Fischer 344, females, in feed, site: urinary bladder, lesion: transitional-cell carcinoma + transitional-cell papilloma, dosed 103 weeks, study length 104 weeks) was 198 mg/kg/day. It also gave a TD50 (rat, strain Fischer 344, females, in feed, site: urinary bladder, lesion: transitional-cell carcinoma, dosed 103 weeks, study length 104 weeks) of 307 mg/kg/day, a TD50 (rat, strain Fischer 344, females, in feed, site: urinary bladder, lesion: transitional-cell papilloma, dosed 103 weeks, study length 104 weeks) of 317 mg/kg/day and a TD50 (rat, strain Fischer 344, males, in feed, site: any site (literature study), lesion: several types, types named in the paper, dosed 103 weeks, study length 104 weeks) of 39.3 mg/kg/day. For the same molecule, the TD50 (rat, strain Fischer 344, males, in feed, site: pancreatic islets, lesion: islet-cell adenoma + islet-cell carcinoma, dosed 103 weeks, study length 104 weeks) was 414 mg/kg/day, the TD50 (rat, strain Fischer 344, males, in feed, site: pancreatic islets, lesion: islet-cell adenoma, dosed 103 weeks, study length 104 weeks) was 810 mg/kg/day and the TD50 (rat, strain Fischer 344, males, in feed, site: subcutaneous tissue, lesion: sarcoma, NOS, dosed 103 weeks, study length 104 weeks) was 1830 mg/kg/day. The TD50 (rat, strain Fischer 344, males, in feed, site: testis, lesion: interstitial-cell tumor, dosed 103 weeks, study length 104 weeks) was 100 mg/kg/day, the TD50 (rat, strain Fischer 344, males, in feed, site: thyroid gland, lesion: c-cell adenoma + c-cell carcinoma, dosed 103 weeks, study length 104 weeks) was 474 mg/kg/day and the TD50 (rat, strain Fischer 344, males, in feed, site: thyroid gland, lesion: c-cell adenoma, dosed 103 weeks, study length 104 weeks) was 529 mg/kg/day. It also gave a TD50 (rat, strain Fischer 344, males, in feed, site: urinary bladder, lesion: leiomyosarcoma + leiomyoma + squamous-cell carcinoma + squamous-cell papilloma + transitional-cell carcinoma + transitional-cell p, dosed 103 weeks, study length 104 weeks) of 89.3 mg/kg/day, a TD50 (rat, strain Fischer 344, males, in feed, site: urinary bladder, lesion: leiomyosarcoma + leiomyoma, dosed 103 weeks, study length 104 weeks) of 129 mg/kg/day and a TD50 (rat, strain Fischer 344, males, in feed, site: urinary bladder, lesion: leiomyosarcoma, dosed 103 weeks, study length 104 weeks) of 131 mg/kg/day. It also gave a TD50 (rat, strain Fischer 344, males, in feed, site: urinary bladder, lesion: squamous-cell carcinoma + squamous-cell papilloma, dosed 103 weeks, study length 104 weeks) of 803 mg/kg/day, a TD50 (rat, strain Fischer 344, males, in feed, site: urinary bladder, lesion: squamous-cell papilloma, dosed 103 weeks, study length 104 weeks) of 1260 mg/kg/day and a TD50 (rat, strain Fischer 344, males, in feed, site: urinary bladder, lesion: transitional-cell carcinoma + transitional-cell papilloma, dosed 103 weeks, study length 104 weeks) of 245 mg/kg/day. The TD50 (rat, strain Fischer 344, males, in feed, site: urinary bladder, lesion: transitional-cell carcinoma, dosed 103 weeks, study length 104 weeks) was 506 mg/kg/day and the TD50 (rat, strain Fischer 344, males, in feed, site: urinary bladder, lesion: transitional-cell papilloma, dosed 103 weeks, study length 104 weeks) was 370 mg/kg/day.
